{"source": "patent US9255272B2", "about": "“Use of inhibitors of leukotriene B4 receptor BLT2 for treating asthma” (Korea University Research & Business Foundation, priority 2007, dated 2016)", "key": {"[1]": {"system": "BLT2 mRNA", "assay": "BLT2 mRNA in Rat2-BLT2 stable cells (RT-PCR)", "type": "cell-based", "conditions": "transient transfection, 24 h", "procedure": "Suppressed BLT2 expression level was determined by RT-PCR. Rat2-BI_T2 stable cells were plated at a density of 5×10^4 cells/plate on 6 well plates. After 24 hr, cells were transiently transfected with BLT2 specific antisense and sense oligonucleotide plasmid with Lipofectamin reagent and then incubated in fresh DMEM supplemented with 10% FBS for an additional 24 h. After additional incubation, the transfected cells were harvested for BLT2 transcripts analysis. Total RNA was reverse-transcribed and PCR amplify were performed with BLT2 forward primer: 5′-[…]-3′ (SEQ ID NO: 23) and reverse primer: 5′-[…]-3′ (SEQ ID NO: 24). Non-transfected Rat2-BLT2 stable cells cDNA was used the negative control and GAPDH was shown as internal control."}, "[2]": {"system": "Rac", "assay": "Endogenous Rac expression in lung tissue (Western blot)", "type": "in vivo, mouse", "conditions": "oligonucleotides injected into tail veins, mice sacrificed after 12 hr", "source_text": "FIGS. 10a and 10b show activation of Rac in the lung tissue by OVA provocation and inhibition of endogenous Rac expression by antisense Rac oligonucleotide treatment. Lung samples were homogenized with micropestle and washed with PBS twice. FIG. 10a depicts Western blot analysis of Rac expression in mouse model of asthma. For membrane protein preparation, cells were suspended in Buffer A and cells were ruptured by passing through 21-G syringe. After ultracentrifugation, protein samples in pelleted membrane fraction were dissolved with buffer A containing 1% Triton X-100. FIG. 10b depicts Western blot analysis of Rac expression in mouse model of asthma administered with asRac. For whole cell lysate preparation, cells from the lung tissues of buffer, control Rac oligonucleotide or antisense Rac oligonucleotide injected mice were suspended with lysis buffer and incubated for 20 min. After centrifugation of the samples, protein quantification was carried out using Bradford reagent and Western blot analysis was performed.\nOligonucleotides, from Genotech Co. (Korea), were synthesized with a phosphorothioate backbone to improve the resistance to endonuclease. The antisense oligonucleotide consisted of 17 nucleotides analogues to the 5′ end of the murine Rac mRNA sequence, which spans the translation initiation site. […]"}, "[3]": {"system": "OVA-challenged mice", "assay": "Eosinophil infiltration in BAL fluid of OVA-challenged mice", "type": "in vivo, mouse", "conditions": "C57BL/6 mice, 1.6 mg/kg i.v. 24 hr and 1 hr before 10% OVA challenge, 48 hr", "procedure": "(§1) Female BALB/c mice and C57BL/6 mice (7 weeks old; 18-20 g) were obtained from Orientbion Inc. (Seoungnam, Korea). Sensitization and challenge were carried out as described previously with some modification (28). Briefly, female C57BL/6 mice (7 weeks old; 18-20 g) were immunized by intraperitoneal (i.p.) injection of 200 μg ovalbumin (OVA) emulsified in 2.5 mg of adjuvant aluminum hydroperoxide gel (alum) (Pierce, Rockford, Ill.). A second i.p. injection of 20 μg OVA adsorbed onto alum (2.5 mg) was administered 10 days later. After an additional 10 days, mice were exposed to an aerosol of 1% OVA in saline for 30 min daily on 3 consecutive days. On day 25, mice were finally challenged by provocation with 10% OVA aerosol. For inhibition experiments, sense or antisense BLT2 (1.6 mg/kg) was injected intravenously 24 h and then 1 h before the 10% OVA challenge. The mice were then killed on day 27 to assess asthmatic phenotypes. Antisense BLT2 oligonucleotide (5′-[…]-3′ (SEQ ID NO: 15)), sense BLT2 oligonucleotide (5′-[…]-3′ (SEQ ID NO: 16)).\nInflammatory cells in the BAL fluid were collected by centrifugation (1,000 g for 3 min) and washed once in PBS. Cells were counted using a hemocytometer, and viability was assessed by trypan blue exclusion. […]"}, "[4]": {"system": "ROS", "assay": "ROS levels in BAL fluid cells (DCF fluorescence, FACS)", "type": "in vivo, mouse", "conditions": "1.6 mg/kg i.v. 24 hr and 1 hr before 10% OVA; BAL fluid 48 h after challenge", "procedure": "as §1\nROS levels in BAL fluids were measured as a function of DCF fluorescence as described previously (30). […] DCF fluorescence was excited at 488 nm and the evoked emission was filtered with a 515-nm long-pass filter. […]"}}, "data": [{"substance": "BLT2 antisense oligonucleotide: BLT2 specific antisense oligonucleotide plasmid transfected into Rat2-BLT2 stable cells (antisense CAGCAGTGTCTCGTT; listed as DNA, chemistry not given here)", "values": [{"measurement": "level of BLT2 mRNA by RT-PCR", "setting": "[1]", "result": "reduced"}]}, {"substance": "control Rac: control oligonucleotide of same nucleotide composition, 5′-GATCAGTGCACACAGTG-3′ (SEQ ID NO: 21) (listed as DNA, chemistry not given here) [reference compound]", "values": [{"measurement": "endogenous expression of Rac in the lung tissues", "setting": "[2]", "result": "didn't show significant effect"}]}, {"substance": "sense BLT2: sense BLT2 oligonucleotide 5′-GGAATGAGACACTACTGAGC-3′ (SEQ ID NO: 16) (listed as DNA, chemistry not given here) [reference compound]", "values": [{"measurement": "effect on eosinophil infiltration in BAL fluids (in words)", "setting": "[3]", "result": "no inhibitory effect"}, {"measurement": "effect on ROS levels in BAL fluid (in words)", "setting": "[4]", "result": "not"}]}]}
